ChEMBL document CHEMBL1806482, “Flavans from Iris tenuifolia and their effects on β-amyloid aggregation and neural stem cells proliferation in vitro” (Bioorg Med Chem Lett, 2011)
Active and inactive are the calls of the source. No cut-off for these calls is given here.

What was measured:
[1] = Inhibition of amyloid beta (1 to 40) aggregation after 30 mins by thioflavin T fluorescence assay
[2] = system: NSC; assay: Induction of NSC proliferation assessed as ATP level; assay type: functional, cell-based

Row | Structure (SMILES) | inhibition [1] [%] | Activity [2]
1 | O=C1CC(c2cccc(O)c2O)Oc2cc3c(c(O)c21)OCO3 (stereo not given) | 61.7 | Active
2 | C[C@H]1COC2=C1C(=O)C(=O)c1c2ccc2c1CCCC2(C)C | 43.7 | –
3 | COc1cc(OC)c2c(c1)O[C@H]1C[C@@H]2Oc2c(O)cccc21 | 19.8 | inactive
